In patent US12486250B2, “Muscarinic receptor 4 antagonists and methods of use” (Neurocrine Biosciences, Inc., priority 2019, dated 2025):

What was measured:
[1] = target: T1, human M1 receptor (Homo sapiens, UniProt P11229); test: Radioligand ([3H]N-methylscopolamine) binding assay, CHO cell membranes; conditions: 1.5 nM tritiated N-methylscopolamine, 90 minutes at 37° C.; read-out: Binding affinity (Ki) M1
T1 construct: expressed in transfected cells; host or cells: CHO cells
T1 sequence (P11229 1-460): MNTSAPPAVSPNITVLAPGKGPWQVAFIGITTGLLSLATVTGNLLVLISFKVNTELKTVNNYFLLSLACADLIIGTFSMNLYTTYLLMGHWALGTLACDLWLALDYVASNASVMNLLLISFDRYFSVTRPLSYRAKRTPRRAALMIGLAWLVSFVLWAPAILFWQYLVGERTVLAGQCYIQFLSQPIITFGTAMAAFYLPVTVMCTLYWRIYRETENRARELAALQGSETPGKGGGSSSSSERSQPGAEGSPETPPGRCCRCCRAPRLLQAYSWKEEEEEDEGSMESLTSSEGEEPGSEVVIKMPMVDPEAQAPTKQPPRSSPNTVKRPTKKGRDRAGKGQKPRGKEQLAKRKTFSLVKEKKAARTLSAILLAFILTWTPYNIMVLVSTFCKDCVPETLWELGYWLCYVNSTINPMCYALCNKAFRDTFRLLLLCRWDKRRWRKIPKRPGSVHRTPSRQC
Experimental: (§1) Binding affinity (Ki) of compounds was measured by inhibition of radioligand binding to membranes from CHO cells expressing human M1, M2, M3, M4 and M5 receptors. Membranes were prepared by nitrogen cavitation and differential centrifugation as previously described (Hoare et al., Mol. Pharmacol. 2003 March; 63(3): 751-65). The radioligand employed was tritiated N-methylscopolamine, used at a concentration of 1.5 nM. A dose-response of twelve concentrations of compound was used, ranging from […]. The assay buffer was 50 mM HEPES, 100 mM NaCl, 5 mM MgCl2, 1 mM ethylenediaminetetraacetic acid, pH-adjusted to pH 7.4. Membranes, radioligand and compound were incubated together for 90 minutes at 37° C., in a total volume of 150 μL in a 96-well plate. Receptor-bound radioligand was then collected by harvesting the assay over glass fiber filters pretreated with polyethylenimine to trap the cell membranes, using rapid vacuum filtration. Harvesting and radioactivity counting was conducted as previously described (see, e.g., Hoare et al., Mol. Pharmacol. 2003 63(3):751-65); Erratum at Mol. Pharmacol. 2005 July; 68(1): 260).

[2] = target: T2, human M5 receptor (Homo sapiens, UniProt P08912); test: as above; conditions: 1.5 nM tritiated N-methylscopolamine, 90 minutes at 37° C.; read-out: Binding affinity (Ki) M5
T2 construct: expressed in transfected cells; host or cells: CHO cells
T2 sequence (P08912 1-532): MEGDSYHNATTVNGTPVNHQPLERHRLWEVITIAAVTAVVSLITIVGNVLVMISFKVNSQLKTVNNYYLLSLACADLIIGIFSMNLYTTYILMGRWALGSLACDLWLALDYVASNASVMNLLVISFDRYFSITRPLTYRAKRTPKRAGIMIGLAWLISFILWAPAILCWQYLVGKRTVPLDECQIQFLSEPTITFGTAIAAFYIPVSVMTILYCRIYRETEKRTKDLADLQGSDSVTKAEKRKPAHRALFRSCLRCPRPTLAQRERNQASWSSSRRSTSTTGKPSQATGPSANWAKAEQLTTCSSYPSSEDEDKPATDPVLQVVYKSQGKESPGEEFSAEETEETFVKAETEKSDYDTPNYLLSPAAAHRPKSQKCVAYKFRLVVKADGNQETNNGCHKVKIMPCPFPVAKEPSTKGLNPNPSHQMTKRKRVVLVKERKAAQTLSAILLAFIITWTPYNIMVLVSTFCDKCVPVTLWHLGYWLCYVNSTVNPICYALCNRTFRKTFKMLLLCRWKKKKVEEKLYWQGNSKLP
Experimental: as §1

Ki [1]	Ki [2]	SMILES
≥ 1000 nM	≥ 1000 nM	C[C@@H]1CN(c2cnc(C(F)(F)F)cn2)C[C@@H](C)N1C(=O)OCCC1CCN(Cc2ccccc2)CC1 [Compound 2, 2-(1-benzylpiperidin-4-yl)ethyl (2R,6R)-2,6-dimethyl-4-[5-(trifluoromethyl)pyrazin-2-yl]piperazine-1-carboxylate]
≥ 1000 nM	≥ 1000 nM	C[C@@H]1CN(c2cnc(C(F)(F)F)cn2)C[C@H](C)N1C(=O)OCCC1CCN(Cc2ccccc2)CC1 [Compound 1, 2-(1-benzylpiperidin-4-yl)ethyl (2R,6S)-2,6-dimethyl-4-[5-(trifluoromethyl)pyrazin-2-yl]piperazine-1-carboxylate]
